Reference: PMC8989888, “Development of optimized drug-like small molecule inhibitors of the SARS-CoV-2 3CL protease for treatment of COVID-19” (Nature Communications, 2022)
Several values for one entry are separate records, joined by “and”; a condition that tells them apart may be missing. Identical values can stand only once. Like-named read-outs stand apart in the source and are kept apart here.

Molecular target: SARS-CoV-2 3CL protease (Severe acute respiratory syndrome coronavirus 2, UniProt P0DTD1)
Assay: biochemical
Details: for Normalized SARS-CoV-2 3CL protease activity: 0.2 µM protease with 50 µM tested compound; for Normalized SARS-CoV-2 3CL protease activity / Protease activity (normalized): replicates; for activity against SARS-CoV-2 3CL protease (in words): compound 4 analogs
[1] = 200 nM protease, read-out: IC50

Structure (SMILES)	Normalized SARS-CoV-2 3CL protease activity	IC50 [1] [µM]	activity against SARS-CoV-2 3CL protease (in words)	other results
CC(C)(C)OC(=O)NC(CO)CC1CCNC1=O (centres unmarked) [AZVIII-30]	0.9915 and 0.9651 and 0.9186	> 50	did not produce active compounds	–
CCOC(=O)/C=C/[C@H](C[C@@H]1CCNC1=O)NC(=O)[C@H](CC(C)C)NC(=O)OC(C)(C)C [AZVIII-33B]	1.107 and 0.6918 and 1.159	> 50	inactive	–
CC(C)C[C@H](NC(=O)OC(C)(C)C)C(=O)N[C@H](CO)C[C@@H]1CCNC1=O [AZVIII-37A]	0.8312 and 1.007 and 1.0118	> 50	inactive	–
COC(=O)[C@H](C[C@@H]1CCNC1=O)NC(=O)OC(C)(C)C [AZVIII-38]	1.058 and 1.088 and 0.9126	> 50	did not produce active compounds	–
O=c1[nH]sc2ccccc12 [AZVIII-40A, 1,2-Benzisothiazol-3(2H)-one, reference compound]	–	–	–	IC50 (IC50): 0.79 µM
CCOC(=O)C=CC(CC1CCNC1=O)NC(=O)C(CC(C)C)NC(=O)OCc1ccccc1 (centres unmarked) [AZVIII-41A]	0.05469 and 0.07659 and 0.08287	> 50	–	IC90 (200 nM protease): > 50 µM; Protease activity (normalized) (200 nM protease, log10[nM] 0.404879): 0.9534 and 1.001 and 1.046; Protease activity (normalized) (200 nM protease, log10[nM] 0.882): 0.9954 and 1.035 and 1.1072; Protease activity (normalized) (200 nM protease, log10[nM] 1.35912): 0.9788 and 1.032 and 1.063; Protease activity (normalized) (200 nM protease, log10[nM] 1.83624): 0.8536 and 0.8662 and 0.892; Protease activity (normalized) (200 nM protease, log10[nM] 2.31336): 0.8339 and 0.8695 and 0.9444; Protease activity (normalized) (200 nM protease, log10[nM] 2.79048): 0.86 and 0.9004 and 0.9124; Protease activity (normalized) (200 nM protease, log10[nM] 3.26761): 0.9439 and 0.9917 and 1.018; Protease activity (normalized) (200 nM protease, log10[nM] 3.74473): 0.9845 and 1.046 and 1.061; Protease activity (normalized) (200 nM protease, log10[nM] 4.22185): 0.8912 and 0.9195 and 0.9785; Protease activity (normalized) (200 nM protease, log10[nM] 4.69897): 0.4548 and 0.5207 and 0.5344; Protease activity (normalized) (200 nM protease, log10[nM] -0.0722425): 0.8359 and 0.8847 and 0.9024; Protease activity (normalized) (200 nM protease, log10[nM] -0.549364): 0.7778 and 0.8128 and 0.8188
CC(C)(C)OC(=O)NC(C=O)CC1CCNC1=O (centres unmarked) [AZVIII-42]	0.09531 and 0.1273 and 0.138	–	functioned slightly better	IC90 (200 nM protease): > 50 µM
CC(C)(C)OC(=O)NC(CC1CCNC1=O)Cn1sc2ccccc2c1=O (centres unmarked) [AZVIII-43A]	1.104 and 1.129 and 1.238	> 50	did not produce active compounds	–
O=S(=O)(NCc1cccnc1)c1cccnc1 [AZVIII-44B]	1.138 and 1.193 and 1.162	> 50	–	–
O=S(=O)(NCc1ccccc1)c1ccccc1 [AZVIII-44D]	1.234 and 1.326 and 1.299	> 50	–	–
O=S(=O)(NCc1ccccc1)c1cccnc1 [AZVIII-44E]	1.222 and 1.184 and 1.143	> 50	–	–
COc1ccc(CNS(=O)(=O)c2cccnc2)cc1 [AZVIII-44H]	0.9803 and 0.9852 and 1.015	> 50	–	–
O=S(=O)(NCc1ccncn1)c1cccnc1 [AZVIII-49C]	1.015 and 1.0173 and 1.005	> 50	–	–
